Where “and” joins values, the source holds several entries; their conditions need not be identical. Identical values can stand only once.
Test system: 186277-243-T-J2-PDC complex spheroid growth
Experiment: Anticancer human tumor 186277-243-T-J2-PDC patient-derived colon adenocarcinoma cell line growth inhibition [AhR]
Conditions: for viability, T/C: stronger effect = lower value
Text: Multicellular complex tumor spheroid response to aryl hydrocarbon receptor antagonists in combination with a variety of drugs and investigational agents in selected tumor cell lines
The current study was undertaken to assess response to aryl hydrocarbon receptor antagonists in combination with standard-of-care drugs and investigational agents in solid tumor complex spheroid models. Complex spheroids include a stromal component modeled by human endothelial cells (HUVEC) and fibroblasts modeled by human mesenchymal stem cells (MSCs). The concentration ranges selected for each drug and investigational agent were based upon clinically achievable concentrations if the clinical Cmax of the agent was known.
Compounds. The drugs and investigational agents: BAY 2416964 (NSC825713), GNF351 (NSC835774), CH-223191 (NSC835775), CPI-455 (NSC825282), aza-TdCyd (NSC777586), decitabine (NSC127716), belinostat (NSC758774), entinostat (NSC756642), pevonedistat (NSC761192), tazemetostat (NSC777109), talazoparib (NSC765396), olaparib (NSC753686), selinexor (NSC780203), nedisertib (M3814, NSC802822), bortezomib (NSC756655), venetoclax (NSC766270), doxorubicin (NSC123127), elimusertib (BAY189344, NSC800525), ceralasertib (AZD6738, NSC777638), TAK-243 (NSC785004), alisertib (NSC759677), etoposide (NSC141540), topotecan (NSC609699), eribulin (NSC707389), gemcitabine (NSC613327), carboplatin (NSC241240), cisplatin (NSC119875), and SN-38 (NSC673596) were obtained from the National Cancer Institute (NCI) Developmental Therapeutics Program Chemical Repository (32). The FDA-approved anticancer drug set is available from the Developmental Therapeutics Program at https://dtp.cancer.gov/organization/dscb/obtaining/available plates.htm. […] The stock solutions were prepared in dimethyl sulfoxide (DMSO, Sigma-Aldrich, St. Louis, MO, cat. D2650), except for the platinum compounds which were prepared in saline (Quality Biological, Gaithersburg, MD, cat. 114-055-101), at 800-fold the tested concentration and stored at -70 degrees C prior to their use. All drugs and investigational agents were tested over a range starting from a high concentration at or near the clinical Cmax and decreasing in half-log increments. If the clinical Cmax for an agent had not been determined, the highest concentration tested was 10 microM (Table 1).
Cell Culture. All cells were maintained in an incubator at 37 degrees C and 5% CO2 with 95% humidity. The PDC lines were cultured according to standard operating procedures established by the NCI PDMR (https://pdmr.cancer.gov). Briefly, all PDCs were thawed and cultured in Matrigel-coated flasks prepared with a working solution of 1X Ham's F-12 nutrient mix, without supplementation (Invitrogen, Waltham, MA, cat. 11765054), 100 U/mL penicillin-streptomycin (Invitrogen, cat. 15140122), and 2.5% Matrigel (Corning Inc., Corning, NY, cat. 354248) for the first three passages. All PDCs were cultured in complete DMEM/F-12 media containing advanced DMEM/F-12 (Invitrogen, cat. 12634028), 4.9% defined fetal bovine serum, heat inactivated (HyClone Laboratories Inc., Logan, UT, cat. SH30070.03HI), 389 ng/mL hydrocortisone (Sigma-Aldrich, cat. H4001), 9.7 ng/mL human EGF recombinant protein (Invitrogen, cat. PHG0313), 23.4 microg/mL adenine (Sigma-Aldrich, cat. A2786), 97.3 U/mL penicillin-streptomycin (Invitrogen, cat. 15140122), 1.9 mM L-glutamine (Invitrogen, cat. 25030081), and 9.7 microM Y-27632 dihydrochloride (Tocris Bioscience, Bristol, United Kingdom, cat. 1254). The PDCs were cultured in complete DMEM/F12 media without 10 microM Y-27632 dihydrochloride for at least two passages prior to the screen. The established cell lines NCI-H1341 and […] were cultured in DMEM/F-12, HEPES (Invitrogen, cat. 11330032), 5% defined fetal bovine serum (HyClone Laboratories Inc., cat. SH30070.03), ITS premix universal culture supplement [insulin (5 microg/mL), transferrin (5 microg/mL), and selenious acid (5 ng/mL)] […]
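Further: spheroids exposed to compounds for seven days before the viability read.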
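Wherever viability, T/C is given: luminescent signal used as a stand-in for viable cell amount; 100% = DMSO vehicle control wells.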

Structure (SMILES)	IC50 (curve of compound)	viability, T/C (compound 0.0316 µM)	viability, T/C (compound 0.1 µM)	viability, T/C (compound 0.316 µM)	viability, T/C (compound 1 µM)	viability, T/C (compound 3.16 µM)	viability, T/C (compound 10 µM)	other results
CC(C)CC(NC(=O)C(Cc1ccccc1)NC(=O)c1cnccn1)B(O)O (centres undefined)	0.0142 µM and 0.0156 µM and 0.00549 µM							viability, T/C (compound 0.000949 µM): 106% and 98.7% and 108%; viability, T/C (compound 0.003 µM): 96.2% and 116% and 102%; viability, T/C (compound 0.03 µM): 0.39% and 1.22% and 0.15%; viability, T/C (compound 0.0949 µM): 0.17% and 1.7% and 0.16%; viability, T/C (compound 0.3 µM): 0.21% (2×) and 1.15%
CC(C)c1c(-c2ccccc2)nc2c(C#N)c[nH]n2c1=O	> 10 µM	103% and 105% and 93.4%	88.8% and 101% and 94.2%	107% and 95.9% and 94.8%	103% and 113% and 97.7%	96.4% and 107% and 96.9%	92% and 105% and 91.7%	
CC(CO)NC(=O)c1cc(-c2ccc(Cl)cc2)nn(-c2cnn(C)c2)c1=O (centres undefined)					98.3% [middle of 21 runs]		85.9% [middle of 19 runs]	IC50 (compound alone, run of 07/12/2022): > 10 µM
CC1(C)CCC(CN2CCN(c3ccc(C(=O)NS(=O)(=O)c4ccc(NCC5CCOCC5)c([N+](=O)[O-])c4)c(Oc4cnc5[nH]ccc5c4)c3)CC2)=C(c2ccc(Cl)cc2)C1	> 10 µM and 7.52 µM and 5.33 µM	97.4% and 103% and 99.8%	99.3% and 105% and 95.2%	93.9% and 119% and 92.1%	98.4% and 99.1% and 101%	85.5% and 109% and 84.2%		
CC1COCCN1c1cc(-c2ccnn2C)c2ccnc(-c3ccn[nH]3)c2n1 (centres undefined)	0.0806 µM and 0.0816 µM and 0.0235 µM	126% and 103% and 38.2%		8.06% and 11.5% and 3.15%	5.02% and 8.23% and 2.74%			viability, T/C (compound 0.00316 µM): 96.9% and 95.5% and 78.2%; viability, T/C (compound 0.01 µM): 94.7% and 106% and 89.9%
CC1COCCN1c1cc(C2(S(C)(=N)=O)CC2)nc(-c2ccnc3[nH]ccc23)n1 (centres undefined)	4.45 µM and 2.39 µM and 0.779 µM	102% and 98.7% and 97.3%	98% and 103% and 99%	99.5% and 92% and 73%	106% and 89.6% and 47.1%	67.5% and 37.4% and 6.44%	8.92% and 13.3% and 3.14%	
CCN(c1cc(-c2ccc(CN3CCOCC3)cc2)cc(C(=O)NCc2c(C)cc(C)[nH]c2=O)c1C)C1CCOCC1	> 3 µM							viability, T/C (compound 0.00949 µM): 107% and 112% and 86.8%; viability, T/C (compound 0.03 µM): 99.7% and 104% and 85%; viability, T/C (compound 0.0949 µM): 95.2% and 112% and 74.4%; viability, T/C (compound 0.3 µM): 98.2% and 109% and 93.8%; viability, T/C (compound 0.949 µM): 101% and 112% and 91.5%; viability, T/C (compound 3 µM): 106% and 104% and 89.5%
CC[C@@]1(O)C(=O)OCc2c1cc1n(c2=O)Cc2cc3c(CN(C)C)c(O)ccc3nc2-1	> 0.1 µM and 0.0196 µM	106% and 37% and 119%	65.8% and 19.4% and 111%					viability, T/C (compound 0.000316 µM): 100% and 99.5% and 110%; viability, T/C (compound 0.001 µM): 94.2% and 104% and 99.4%; viability, T/C (compound 0.00316 µM): 104% and 95.7% and 114%; viability, T/C (compound 0.01 µM): 118% and 68.7% and 119%
CCc1c2c(nc3ccc(O)cc13)-c1cc3c(c(=O)n1C2)COC(=O)[C@]3(O)CC								viability, T/C (compound 0.000949 µM): 118% and 125% and 49.3%; viability, T/C (compound 0.003 µM): 111% and 144% and 37.7%; viability, T/C (compound 0.00949 µM): 70.2% and 115% and 18.8%; viability, T/C (compound 0.03 µM): 49.7% and 83% and 17.6%; viability, T/C (compound 0.0949 µM): 29.7% and 43.6% and 10.7%; viability, T/C (compound 0.3 µM): 15.3% and 26.9% and 7.34%
COc1cc(C2c3cc4c(cc3C(OC3OC5COC(C)OC5C(O)C3O)C3COC(=O)C23)OCO4)cc(OC)c1O (centres undefined)		97.2% and 86.2% and 92.7%	126% and 88.1% and 97.8%	118% and 44.4% and 142%	58.8% and 22.6% and 97.1%	51.1% and 17.5% and 85.7%	25.6% and 10% and 46.4%	
COc1cc(Nc2ncc3c(n2)-c2ccc(Cl)cc2C(c2c(F)cccc2OC)=NC3)ccc1C(=O)O		95.8% and 121% and 27.3%	83.4% and 121% and 22.3%	74.4% and 119% and 20.1%	69.7% and 114% and 18.9%	79.1% and 117% and 22.9%	81.5% and 123% and 25.9%	
COc1ccc([C@@H](O)c2cc(-c3ncnc4cc(N5CCOCC5)ccc34)c(F)cc2Cl)nn1	9.19 µM and 8.76 µM and 2.56 µM	103% and 94.6% and 86.8%	101% and 91.5% and 90.4%	115% and 102% and 95%	107% and 95.6% and 69.3%	108% and 87.9% and 46.4%	45.4% and 44.9% and 16.3%	

Reference: PubChem BioAssay AID1918991 (Molecular Pharmacology Branch, DTP, NCI, 2023)
